Test results reported in ChEMBL document CHEMBL4334442, “Effects of Acetylshikonin on the Infection and Replication of Coxsackievirus A16 in Vitro and in Vivo” (J Nat Prod, 2019).
pEC50: −log10 of the molar value.

Columns and labels:
[1] = system: Coxsackievirus A16; experiment: Antiviral activity against Coxsackievirus A16 TA271 infected in human RD cells assessed as inhibition of virus-induced cytopathic effect preincubated with viral suspension for 2 hrs followed by cell addition and measured after 24 hrs by CCK-8 assay; type: functional, cell-based
[2] = Selectivity index, ratio of CC50 for cytotoxicity against human RD cells to EC50 for antiviral activity against Coxsackievirus A16 TA271 infected in human RD cells; type: toxicity, cell-based; conditions: read-out: Ratio CC50/EC50
[3] = Cytotoxicity against human RD cells assessed as reduction in cell viability after 12 hrs by CCK8 assay; type: cell-based

What does the source list for `NC(=O)c1ncn([C@@H]2O[C@H](CO)[C@@H](O)[C@H]2O)n1` [RIBAVIRIN]?
Activity [1]: Dose-dependent effect; pEC50 ([1]; Enterovirus A): 3.84; selectivity ratio [2]: 10.3; CC50 at 12 h [3]: 1480 µM
